Measured values reported in publication PMC9599613 (Biomolecules, 2022).

How the values were obtained:
[1] = molecular target: T1, acetylcholinesterase (AChE) (Electrophorus electricus, UniProt O42275); assay: Anticholinesterase assay (Ellman's), AChE inhibition; type: biochemical
T1 construct: acetylcholinesterase (AChE, obtained from Electrophorus electricus); from tissue
Description: (§1) This enzyme method relied on the hydrolytic of acetyl cholinethioiodide (ATChI) by acetylcholinesterase and butyrylthiocholine iodide (BTchI) by butyrylcholinesterase. As a result of this breakdown, 5-thio-2-nitrobenoate anions formed. […] The absorption was measured with a spectrophotometer, as per the protocols. […] An amount of 0.1 M phosphate buffer (8.0 ± 0.1 pH) solution was prepared, whose final pH was adjusted by using the KOH solution.
(§2) In this assay, 50 µL enzyme solution and 50 µL DTNB reagent were added to 1 mL test samples in a cuvette and then incubated at 30 °C for 15 min. Afterward, a 50 µL substrate solution was added to the mixture.

COX-2 = molecular target: T2, COX-2 (Homo sapiens, UniProt P35354); assay: biochemical
T2 sequence (P35354 18-604): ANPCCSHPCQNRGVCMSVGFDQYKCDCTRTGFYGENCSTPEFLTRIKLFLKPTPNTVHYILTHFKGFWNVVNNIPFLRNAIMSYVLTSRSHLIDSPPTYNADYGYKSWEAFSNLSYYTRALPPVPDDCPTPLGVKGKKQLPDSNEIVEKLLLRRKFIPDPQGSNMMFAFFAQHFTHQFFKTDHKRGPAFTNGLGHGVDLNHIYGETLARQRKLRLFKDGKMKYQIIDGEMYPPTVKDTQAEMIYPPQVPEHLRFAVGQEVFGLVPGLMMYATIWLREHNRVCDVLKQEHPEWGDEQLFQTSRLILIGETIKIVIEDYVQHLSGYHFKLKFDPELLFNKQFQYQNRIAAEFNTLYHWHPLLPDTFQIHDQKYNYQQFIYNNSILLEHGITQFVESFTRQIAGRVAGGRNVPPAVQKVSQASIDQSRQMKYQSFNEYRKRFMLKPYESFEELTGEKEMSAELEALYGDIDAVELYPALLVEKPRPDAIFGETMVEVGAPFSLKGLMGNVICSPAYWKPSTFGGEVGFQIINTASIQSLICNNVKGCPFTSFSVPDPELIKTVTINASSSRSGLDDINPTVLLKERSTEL
Description: The Cyclooxygenase enzymes (COX-1 and 2) inhibitory potential of our test compounds was determined according to the previously reported procedure. […] The enzyme solutions with a concentration of 0.7–0.8 μg/10 μL (COX-1) and 300 U/mL (COX-2) were prepared. To start the assay, for enzyme activation, 10 µL enzyme solution (kept in a cool temperature of 4 °C for 5 min) and cofactor containing hematin (50 µL, 1 mM), glutathione (0.9 mM) and TMPD in a Tris-buffer (0.1 M) with a pH 8.0 was added. After that, 60 µL of the enzyme solution was added to 20 µL of the test samples of various concentrations and incubated at room temperature for 5 to 10 min. Then, 20 µL of arachidonic acid (30 mM) was added to start the reaction. The mixture was then again incubated for 15 min at 37 °C, and absorbances were measured at 570 nm with UV-visible spectrophotometer. […] The % enzyme inhibitions were calculated by using the previously reported formula.

[2] = molecular target: T3, butyrylcholinesterase (BChE) (Equus caballus, UniProt P81908); assay: Anticholinesterase assay (Ellman's), BChE inhibition; type: biochemical, equine
T3 construct: butyrylcholinesterase (BChE, obtained from equine serum); from tissue; host or cells: equine serum
Description: as §1, §2

T1 sequence (O42275 24-633): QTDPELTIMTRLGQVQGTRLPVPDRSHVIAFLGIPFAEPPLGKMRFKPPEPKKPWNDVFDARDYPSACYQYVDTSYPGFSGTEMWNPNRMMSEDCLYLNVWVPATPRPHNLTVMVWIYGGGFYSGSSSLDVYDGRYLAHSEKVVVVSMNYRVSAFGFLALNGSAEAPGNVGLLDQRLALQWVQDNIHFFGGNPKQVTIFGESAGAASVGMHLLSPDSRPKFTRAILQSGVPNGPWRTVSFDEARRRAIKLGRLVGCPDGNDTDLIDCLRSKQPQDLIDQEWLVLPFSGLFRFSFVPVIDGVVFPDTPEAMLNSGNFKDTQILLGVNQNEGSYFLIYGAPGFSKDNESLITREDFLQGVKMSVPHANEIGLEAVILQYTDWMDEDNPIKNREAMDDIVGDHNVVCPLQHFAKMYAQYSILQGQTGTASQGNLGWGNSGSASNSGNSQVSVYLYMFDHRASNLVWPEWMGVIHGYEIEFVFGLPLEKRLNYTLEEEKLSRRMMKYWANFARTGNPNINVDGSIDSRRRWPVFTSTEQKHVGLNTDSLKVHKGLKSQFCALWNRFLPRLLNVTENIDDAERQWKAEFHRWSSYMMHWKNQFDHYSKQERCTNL
T3 sequence (P81908 whole entry): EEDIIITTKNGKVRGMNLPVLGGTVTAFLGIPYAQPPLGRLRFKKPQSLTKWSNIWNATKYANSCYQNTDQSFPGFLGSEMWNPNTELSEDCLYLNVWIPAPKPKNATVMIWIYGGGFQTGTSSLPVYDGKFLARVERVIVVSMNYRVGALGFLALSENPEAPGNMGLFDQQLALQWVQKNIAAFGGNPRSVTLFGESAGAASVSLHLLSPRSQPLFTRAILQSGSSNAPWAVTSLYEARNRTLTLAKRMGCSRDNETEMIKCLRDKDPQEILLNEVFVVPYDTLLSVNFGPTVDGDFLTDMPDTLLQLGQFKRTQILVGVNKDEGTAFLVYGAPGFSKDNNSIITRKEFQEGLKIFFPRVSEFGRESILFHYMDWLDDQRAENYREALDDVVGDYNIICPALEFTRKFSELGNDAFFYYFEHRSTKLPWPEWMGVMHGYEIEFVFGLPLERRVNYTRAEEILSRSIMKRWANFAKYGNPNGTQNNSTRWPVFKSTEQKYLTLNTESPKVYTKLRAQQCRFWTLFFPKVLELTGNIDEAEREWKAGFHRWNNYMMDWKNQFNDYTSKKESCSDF

CCC(CCC(C)C1CCC2C3CCC4=CC(=O)CCC4(C)C3CCC12C)C(C)C (stereo not drawn) [Compound 2, 17-(5-ethyl-6-methylheptan-2-yl)-10,13-dimethyl-1,2,6,7,8,9,10,11,12,13,14,15,16,17-tetradecahydro-3H-cyclopenta[a]phenanthren-3-one]
IC50 [1]: 35.2 µM
AChE inhibition (%) ([1]; 62.5 μg/mL): 58.12 ± 0.34 %
AChE inhibition (%) ([1]; 125 μg/mL): 63.47 ± 0.49 %
AChE inhibition (%) ([1]; 250 μg/mL): 68.75 ± 0.14 %
AChE inhibition (%) ([1]; 500 μg/mL): 75.59 ± 0.30 %
AChE inhibition (%) ([1]; 1000 μg/mL): 80.85 ± 0.18 %
inhibition at 62.5 µg/mL (COX-2; 62.50 μg/mL, read-out: % COX-2 Inhibition): 61.9 ± 1.13%
inhibition at 125 µg/mL (COX-2; 125 μg/mL, read-out: % COX-2 Inhibition): 68.3 ± 0.64%
inhibition at 250 µg/mL (COX-2; 250 μg/mL, read-out: % COX-2 Inhibition): 73.34 ± 0.63%
inhibition at 500 µg/mL (COX-2; 500 μg/mL, read-out: % COX-2 Inhibition): 78.3 ± 0.64%
inhibition at 1000 µg/mL (COX-2; 1000 μg/mL, read-out: % COX-2 Inhibition): 83.17 ± 0.72%
IC50 (COX-2; read-out: COX-2 IC50 (converted)): 20.5 µM
IC50 [2]: 25.8 µM
Percent BChE (mean ± SEM) ([2]; 62.5 μg/mL): 61.35 ± 0.18 %
Percent BChE (mean ± SEM) ([2]; 125 μg/mL): 66.20 ± 0.15 %
Percent BChE (mean ± SEM) ([2]; 250 μg/mL): 73.42 ± 0.11 %
Percent BChE (mean ± SEM) ([2]; 500 μg/mL): 78.62 ± 0.17 %
Percent BChE (mean ± SEM) ([2]; 1000 μg/mL): 83.53 ± 0.20 %
